The values below come from US5607969A, “L-DOPA ethyl ester to treat Parkinson's disease” (priority 1995, dated 1997).

The conditions of data set [1]: cited from earlier work.
Data set [2] has as its system Parkinson's Disease patients having response fluctuations. Description: Clinical trial: administration of L-DOPA ethyl ester by injection (UPDRS on/off phases). The data set is classed as in vivo, human. Particulars: prior to administration of LDEE. The protocol: A clinical trial was undertaken to assess the clinical efficacy of L-DOPA ethyl ester administered by sub-cutaneous injection.
The solution for injection L-DOPA ethyl ester 100mg, HCl to pH 4.0 and purified water as the vehicle.
Ten Parkinson's Disease patients having response fluctuations were hospitalized. These patients are typified in have "on" phases fluctuating with incapacitating "off" phases. Patients were administered s.c. or i.m. L-DOPA ethyl ester at escalating doses of 150-300mg in 2ml vehicle, twice daily, one hour after an oral capsule containing 25mg of carbidopa. "Off" and "on" UPDRS (Unified Parkinson's Disease Rating Scale) profiles, time to "on" phase and duration of "on" phase were measured. Blood samples were taken every 10 minutes post-L-DOPA ethyl ester administration for measurement of levodopa levels.

For the next data set, the system named is Parkinsonian patients. Particulars: cited from earlier work.

As to `N[C@@H](Cc1ccc(O)c(O)c1)C(=O)O` [L-DOPA], the solubility result in data set [1] is recorded as “very poor solubility”. In data set [2] (levodopa), the “mean duration of "on" phase” value was “approximately 90 minutes”. For the same molecule, the “mean latency to an "on" phase” value in data set [2] (post-administration of levodopa) was in the range of 45 to 75 min. For the same molecule, in the data set on Parkinsonian patients (L-DOPA therapy, on the average), the “initial period of satisfactory, smooth and stable clinical benefit” value is recorded as 2-5 years. Moreover, in the data set with Parkinsonian patients (in vivo), the bioavailability result is on record as “poor bioavailability” and the half-life in vivo entry is reported as “short half-life in vivo”.
